{"source": "patent US8338403B2", "about": "“Drug for improving hyperglycemia” (Morinaga Milk Industry Co., Ltd., priority 2004, dated 2012)", "key": {"[1]": {"system": "db/db mice (type-II diabetes model mice)", "assay": "Test Example 1: hemoglobin A1c lowering action and hyperglycemic condition improving effect, 40-day oral administration", "type": "in vivo", "settings": "male db/db mice; for changes over time in random blood glucose levels / changes over time in fasting blood glucose levels / Hemoglobin A1c relative levels (%) 35th day from the administration: oral 1 mL of 1 μg/mL once a day; for changes over time in random blood glucose levels / changes over time in fasting blood glucose levels: 40 consecutive days; for changes over time in random blood glucose levels: FIG. 1; for changes over time in fasting blood glucose levels: after 15 hours of fasting, FIG. 2; for Hemoglobin A1c relative levels (%) 35th day from the administration: negative sample = 100", "method": "This test was performed in order to evaluate the hemoglobin A1c lowering action and the hyperglycemic condition improving effect of the compounds of the present invention.\nThe compound 2 (4-methylcholest-7-en-3-ol), compound 3 (4-methylergost-7-en-3-ol) and compound 4 (4-methylstigmast-7-en-3-ol) produced in Preparation Example 1 mentioned above were used as test samples 1, 2 and 3, respectively.\nSix-week old male db/db mice (purchased from Clea Japan, Inc.) were used as type-II diabetes model mice. These mice were divided into groups, each consisting of 7 animals. Each test sample was dissolved in DMSO, and the concentration was adjusted to 1 μg/mL with physiological saline. The final DMSO concentration was adjusted to 0.2%. […] The type-II diabetes model mice were orally administered with 1 mL of any of the test sample solutions once a day everyday with a sonde for 40 consecutive days. Further, β-sitosterol (Tama Biochemical Co., Ltd.) was administered to the model mice as a control sample 1. Fasting blood glucose levels and random blood glucose levels were measured over time by using Antisense II (Bayer-Sankyo Co., Ltd.). The fasting blood glucose levels were measured after 15 hours of fasting. Further, on the 35th day from the start of the administration, hemoglobin A1c levels were measured by using DCA 2000 (Bayer-Sankyo Co., Ltd.)."}, "[2]": {"system": "db/db mice (type-II diabetes model mice)", "assay": "Test Example 2: hemoglobin A1c lowering action compared with a clinical antidiabetic drug, 22-day oral administration", "type": "in vivo", "settings": "male db/db mice; for Hemoglobin A1c relative levels (%) 23th day from the administration: oral 1 mL once a day for 22 days (test samples 1 μg/mL; control sample 2 7.5 μg/mL pioglitazone hydrochloride), negative sample = 100; for decrease in hemoglobin A1c level in comparison with the negative sample: oral once a day, 23rd day", "method": "Six-week old male db/db mice (purchased from Clea Japan, Inc.) were used as type-II diabetes model mice. These mice were divided into groups, each consisting of 7 animals. Each test sample was dissolved in DMSO, and the concentration was adjusted to 1 μg/mL with physiological saline. The final DMSO concentration was adjusted to 0.2%. […] Further, as a control sample 2, ACTOS® tablets (Takeda Pharmaceutical Co., Ltd.) were ground in a mortar and dissolved in physiological saline so that the concentration of pioglitazone hydrochloride as the active ingredient should become 7.5 μg/mL."}}}
{"molecule": "CC[C@H](CC[C@@H](C)[C@H]1CC[C@H]2[C@@H]3CC=C4C[C@@H](O)CC[C@]4(C)[C@H]3CC[C@]12C)C(C)C", "note": "[control sample 1, β-sitosterol, reference compound]", "values": [{"measurement": "changes over time in random blood glucose levels", "setting": "[1]", "value": "rapid increases were observed"}, {"measurement": "changes over time in fasting blood glucose levels", "setting": "[1]", "value": "rapid increases were observed"}, {"measurement": "Hemoglobin A1c relative levels (%) 35th day from the administration", "setting": "[1]; 35th day", "value": "94.8 ± 8.5", "unit": "%"}, {"measurement": "decrease in hemoglobin A1c level in comparison with the negative sample", "setting": "[1]; oral once a day, 35th day", "value": "about 0.5%"}, {"measurement": "hemoglobin A1c lowering effect (in words)", "setting": "[1]; oral once a day, 35th day", "value": "almost no hemoglobin A1c lowering effect was observed"}]}
{"molecule": "CC(C)CCCC(C)C1CCC2C3=CCC4C(C)C(O)CCC4(C)C3CCC21C", "note": "(stereo not shown) [test sample 1, 4-methylcholest-7-en-3-ol]", "values": [{"measurement": "changes over time in random blood glucose levels", "setting": "[1]", "value": "effect of suppressing the increase in blood glucose levels was clearly observed"}, {"measurement": "changes over time in fasting blood glucose levels", "setting": "[1]", "value": "effect of suppressing the increase in blood glucose levels was clearly observed"}, {"measurement": "Hemoglobin A1c relative levels (%) 35th day from the administration", "setting": "[1]; 35th day", "value": "80.2 ± 19.2", "unit": "%"}, {"measurement": "Hemoglobin A1c relative levels (%) 23th day from the administration", "setting": "[2]", "value": "89.9 ± 9.0", "unit": "%"}, {"measurement": "decrease in hemoglobin A1c level in comparison with the negative sample", "setting": "[2]", "value": "about 11%"}]}
{"molecule": "CC(C)C(C)CCC(C)C1CCC2C3=CCC4C(C)C(O)CCC4(C)C3CCC21C", "note": "(stereo not shown) [test sample 2, 4-methylergost-7-en-3-ol]", "values": [{"measurement": "changes over time in random blood glucose levels", "setting": "[1]", "value": "effect of suppressing the increase in blood glucose levels was clearly observed"}, {"measurement": "changes over time in fasting blood glucose levels", "setting": "[1]", "value": "effect of suppressing the increase in blood glucose levels was clearly observed"}, {"measurement": "Hemoglobin A1c relative levels (%) 35th day from the administration", "setting": "[1]; 35th day", "value": "82.7 ± 21.0", "unit": "%"}, {"measurement": "Hemoglobin A1c relative levels (%) 23th day from the administration", "setting": "[2]", "value": "91.0 ± 6.7", "unit": "%"}, {"measurement": "decrease in hemoglobin A1c level in comparison with the negative sample", "setting": "[2]", "value": "about 11%"}]}
{"molecule": "CCC(CCC(C)C1CCC2C3=CCC4C(C)C(O)CCC4(C)C3CCC21C)C(C)C", "note": "(stereo not shown) [test sample 3, 4-methylstigmast-7-en-3-ol]", "values": [{"measurement": "changes over time in random blood glucose levels", "setting": "[1]", "value": "effect of suppressing the increase in blood glucose levels was clearly observed"}, {"measurement": "changes over time in fasting blood glucose levels", "setting": "[1]", "value": "effect of suppressing the increase in blood glucose levels was clearly observed"}, {"measurement": "Hemoglobin A1c relative levels (%) 35th day from the administration", "setting": "[1]; 35th day", "value": "77.8 ± 12.2", "unit": "%"}, {"measurement": "Hemoglobin A1c relative levels (%) 23th day from the administration", "setting": "[2]", "value": "88.8 ± 9.0", "unit": "%"}]}
